Assay results taken from US8470780B2, “Methods and compositions related to targeting wounds, regenerating tissue, and tumors” (Sanford-Burnham Medical Research Institute, priority 2006, dated 2013).
Bridges are numbered along the chain shown (N, C = ends). Where no end group is shown, it is not given here.

Assays:
tendon and skin wounds = experiment: Tissue distribution of fluorescein-labeled peptides after intravenous injection; assay type: in vivo, mice and rats; conditions: FITC conjugates; for fluorescent signal in the wounds: 4 and 8 hours after injection
Excerpt: Two types of injuries were used with patellar tendons: For phage screening in rats, patellar tendons were exposed through small skin incisions placed on the lateral side of the joint so that the skin wound and tendon wound were not in direct contact with each other. Six longitudinal, full-length incisions were made into the tendon. Full-thickness incision wounds, 1.5 cm in length, were made in skin on the back of the animal. The skin wounds were left uncovered without a dressing. For quantification of phage homing and peptide injections, two size 11 surgical scalpels were placed side-by-side and the central third of the patellar tendon was removed analogous to the graft used in anterior cruciate ligament reconstruction. Achilles tendons were wounded by making four longitudinal, full-length incisions into the tendon Skin wounds were 8 mm circular, full-thickness excision wounds, made to the skin with a biopsy punch. None of the procedures prevented the animals from bearing weight and moving immediately after the operation and without a noticeable […].
Peptides were synthesized with an automated peptide synthesizer by using standard solid-phase fluorenylmethoxycarbonyl chemistry. During synthesis, the peptides were labeled with fluorescein with an amino-hexanoic acid spacer. Each individual fluorescein-conjugated peptide was injected intravenously into the tail vein of rats or mice with wounds. The peptides were allowed to circulate for different periods of time, followed by heart perfusion. Tissues were embedded into OCT (Tissue-Tek) and processed for microscopy.
Frozen tissue sections were fixed in acetone for 10 min and incubated with 0.5% blocking reagent for 1 hour (NEN Life Sciences, Boston, Mass.). Tissue sections were incubated with the primary antibody overnight at 4° C. The following monoclonal (mAbs) and polyclonal antibodies (pAbs) were used: rabbit anti-T7-phage affinity-purified pAb (1:100), rat anti-mouse CD31 mAb (1:200; BD Pharmingen) and rabbit anti-FITC pAb (1:200, Invitrogen, Carlsbad, Calif.). The primary antibodies were detected with labeled secondary antibodies, and each staining experiment included sections stained with species-matched immunoglobulins as negative controls. The sections were washed several times with PBS, mounted in Vectashield Mounting Medium with DAPI (Vector Laboratories) and visualized under an inverted fluorescent or light microscope.

CHO-K cells [1] = experiment: FACS analysis of peptide binding to CHO-K cells; assay type: cell-based, Chinese hamster; conditions: for peptide binding to CHO-K cells: 5 μM peptide
Description: (§1) Peptide binding to cells was studied essentially as described above for phage. Peptides were tested at 5 μM concentration, with or without 5×10^9 phage. After incubation on ice for 30 min, the cells were washed and resuspended with PBS containing 2 μg/ml of propidium iodide (PI, Invitrogen, Carlsbad, Calif.) and analyzed using a FACScan flow cytometer (BD, San Jose, Calif.).

CHO-K cells [2] = experiment: Internalization of fluorescein-labeled peptides by CHO-K cells; assay type: cell-based, Chinese hamster; conditions: for fluorescence and localization in CHO-K cells by confocal microscopy: FITC-conjugated peptides 10 μM, 4 hours; for accumulation in CHO-K cells: comparison of CHO-K and pgsA-745 cells
Description: (§2) To study peptide internalization, CHO-K cells or HUVEC seeded on plastic coverslips were incubated with 10 μM fluorescein-conjugated peptides for 30 min to 72 hours, washed 3 times with PBS, and fixed with 4% paraformaldehyde for 20 min at room temperature. After several washes with PBS, the nuclei were visualized by staining with DAPI, and the slides were mounted with ProLong Gold antifade reagent (Invitrogen, Carlsbad, Calif.). The images were acquired using Olympus IX81 inverted and Olympus Fluoview FV1000 confocal microscopes. Z-stack images were taken by confocal microscope every 1 μm through the cells.

[3] = test system: human umbilical vein endothelial cells (HUVECs); experiment: Internalization of peptides by HUVECs; assay type: cell-based; conditions: 10 μM, 24 h
Description: as §2

pgsA-745 cells [4] = experiment: Internalization of peptides by pgsA-745 cells; assay type: cell-based, Chinese hamster; conditions: comparison of CHO-K and pgsA-745 cells
[5] = test system: MDA-MB-235 tumor xenografts; experiment: Homing of fluorescein-conjugated peptides to tumor xenografts; assay type: in vivo, mice; conditions: intravenous, tumor collected 4 hours later; for homing to tumors and extravasation: fluorescence
Description: Fluorescein-conjugated peptides CAR, control peptide CAR2, CRK and control peptide KAREC were intravenously injected into mice with MDA-MB-235 tumor xenografts. Tumor tissue was collected 4 hours later and examined for the presence of the peptides. Blood vessels were stained with CD-31 antibody and the nuclei were stained with DAPI.
Fluorescein-conjugated peptides CAR, control peptide CAR2, CRK and control peptide KAREC were intravenously injected into mice with MDA-MB-235 tumor xenografts. Tumor tissue was collected 4 hours later and examined for the presence of the peptides. Adjacent tissue section were stained for blood vessels (CD-31), while the FITC-labeled peptide was first detected with rabbit anti-FITC followed by biotin-conjugated anti-rabbit IgG to confirm the source of fluorescent signal to be from the FITC-labeled peptide. The sections were then stained with hematoxylin-eosin.

mitochondrial membranes = conditions: concentration of 10 μM; cited from earlier work
pgsA-745 cells [6] = experiment: FACS analysis of peptide binding to pgsA-745 cells; assay type: cell-based, Chinese hamster; conditions: 5 μM peptide
Description: as §1

## CARSKNKDC (disulfide 1-9 (inferred); not fully specified (N-terminus); also: FITC conjugate, site not given here) [tested as fluorescein (FITC) conjugate]
Tendon and skin wounds
  fluorescent signal in non-tumor tissues (liver, kidney, lung and spleen): did not differ from that of the fluorescein-labeled CAR2 or KAREC peptides
  fluorescent signal in the wounds: strong fluorescent signal in the wounds
CHO-K cells [1]
  peptide binding to CHO-K cells: strong binding
CHO-K cells [1]; excess unlabeled peptide or phage
  inhibition of labeled CAR peptide binding to CHO-K cells by competitor: inhibited the binding in a dose-dependent manner
CHO-K cells [2]
  fluorescence and localization in CHO-K cells by confocal microscopy: strong green fluorescence that mostly overlaps with nuclear DAPI staining
  accumulation in CHO-K cells: only binds to and is internalized by the CHO-K cells
CHO-K cells [2]; fluorescein-labeled peptide
  time to accumulation inside the cells, overlapping with the nucleus: ≤ 30 min
[3]
  binding and internalization by HUVECs: binds to cells and appears to enter the cells co-localizing with the nuclei
pgsA-745 cells [4]
  accumulation in pgsA-745 cells: only binds to and is internalized by the CHO-K cells
[5]
  homing detected with anti-FITC antibody: home to hypervascular regions surrounding the tumors and to tumor tissue
  homing to tumors and extravasation: home to tumors and extravasate to tumor tissue

## CARSTKATC [CAR2]
Tendon and skin wounds
  fluorescent signal in the wounds: no accumulated fluorescence
CHO-K cells [1]
  peptide binding to CHO-K cells: bound only weakly
CHO-K cells [2]
  fluorescence and localization in CHO-K cells by confocal microscopy: no detectable fluorescence
CHO-K cells [2]; fluorescein-labeled peptide
  binding and internalization by CHO-K cells: no binding or internalization

## CGKRK [reference compound]
CHO-K cells [2]; 10-molar excess of unlabeled peptide
  effect of unlabeled competitor on uptake of fluorescein-labeled CAR peptide by CHO-K cells: did not detectably affect the uptake
CHO-K cells [2]
  fluorescence and localization in CHO-K cells by confocal microscopy: overlap with the nuclei and the cytosol
  accumulation in CHO-K cells: accumulated in the cytosol and nuclei
pgsA-745 cells [4]
  accumulation in pgsA-745 cells: accumulated in the cytosol and nuclei

## CRKDKC (not fully specified (N-terminus); cysteine pairing not given here; also: FITC conjugate, site not given here) [tested as fluorescein (FITC) conjugate]
Tendon and skin wounds
  fluorescent signal in non-tumor tissues (liver, kidney, lung and spleen): did not differ from that of the fluorescein-labeled CAR2 or KAREC peptides
  fluorescent signal in the wounds: strong fluorescent signal in the wounds
CHO-K cells [2]
  fluorescence and localization in CHO-K cells by confocal microscopy: no detectable fluorescence
CHO-K cells [2]; fluorescein-labeled peptide
  binding and internalization by CHO-K cells: bound to the cells, but was not detectably internalized
[3]
  binding and internalization by HUVECs: binds to the cells, but does not internalize
[5]
  homing detected with anti-FITC antibody: home to hypervascular regions surrounding the tumors and to tumor tissue
  homing to tumors and extravasation: home to tumors and extravasate to tumor tissue

## D(KLAKLAK)2 (KLAKLAKKLAKLAKKLAKKLAKAAKKAA) [antimicrobial peptide which promotes disruption of mitochondrial membranes]
Mitochondrial membranes
  mitochondrial swelling: marked mitochondrial swelling

## KAREC [unrelated 5 amino-acid control peptide, reference compound]
Tendon and skin wounds
  fluorescent signal in the wounds: no detectable signal in the wounds
CHO-K cells [1]
  peptide binding to CHO-K cells: no binding
pgsA-745 cells [6]
  peptide binding to pgsA-745 cells: no binding
CHO-K cells [2]
  fluorescence and localization in CHO-K cells by confocal microscopy: no detectable fluorescence
